What was measured:
[1] = target: T1, Rho-associated protein kinase 1 (Homo sapiens, UniProt Q13464); assay: Inhibition of ROCK-1 by Immobilized metal ion affinity-based fluorescence polarization assay
Target sequence in this assay (Q13464 whole entry): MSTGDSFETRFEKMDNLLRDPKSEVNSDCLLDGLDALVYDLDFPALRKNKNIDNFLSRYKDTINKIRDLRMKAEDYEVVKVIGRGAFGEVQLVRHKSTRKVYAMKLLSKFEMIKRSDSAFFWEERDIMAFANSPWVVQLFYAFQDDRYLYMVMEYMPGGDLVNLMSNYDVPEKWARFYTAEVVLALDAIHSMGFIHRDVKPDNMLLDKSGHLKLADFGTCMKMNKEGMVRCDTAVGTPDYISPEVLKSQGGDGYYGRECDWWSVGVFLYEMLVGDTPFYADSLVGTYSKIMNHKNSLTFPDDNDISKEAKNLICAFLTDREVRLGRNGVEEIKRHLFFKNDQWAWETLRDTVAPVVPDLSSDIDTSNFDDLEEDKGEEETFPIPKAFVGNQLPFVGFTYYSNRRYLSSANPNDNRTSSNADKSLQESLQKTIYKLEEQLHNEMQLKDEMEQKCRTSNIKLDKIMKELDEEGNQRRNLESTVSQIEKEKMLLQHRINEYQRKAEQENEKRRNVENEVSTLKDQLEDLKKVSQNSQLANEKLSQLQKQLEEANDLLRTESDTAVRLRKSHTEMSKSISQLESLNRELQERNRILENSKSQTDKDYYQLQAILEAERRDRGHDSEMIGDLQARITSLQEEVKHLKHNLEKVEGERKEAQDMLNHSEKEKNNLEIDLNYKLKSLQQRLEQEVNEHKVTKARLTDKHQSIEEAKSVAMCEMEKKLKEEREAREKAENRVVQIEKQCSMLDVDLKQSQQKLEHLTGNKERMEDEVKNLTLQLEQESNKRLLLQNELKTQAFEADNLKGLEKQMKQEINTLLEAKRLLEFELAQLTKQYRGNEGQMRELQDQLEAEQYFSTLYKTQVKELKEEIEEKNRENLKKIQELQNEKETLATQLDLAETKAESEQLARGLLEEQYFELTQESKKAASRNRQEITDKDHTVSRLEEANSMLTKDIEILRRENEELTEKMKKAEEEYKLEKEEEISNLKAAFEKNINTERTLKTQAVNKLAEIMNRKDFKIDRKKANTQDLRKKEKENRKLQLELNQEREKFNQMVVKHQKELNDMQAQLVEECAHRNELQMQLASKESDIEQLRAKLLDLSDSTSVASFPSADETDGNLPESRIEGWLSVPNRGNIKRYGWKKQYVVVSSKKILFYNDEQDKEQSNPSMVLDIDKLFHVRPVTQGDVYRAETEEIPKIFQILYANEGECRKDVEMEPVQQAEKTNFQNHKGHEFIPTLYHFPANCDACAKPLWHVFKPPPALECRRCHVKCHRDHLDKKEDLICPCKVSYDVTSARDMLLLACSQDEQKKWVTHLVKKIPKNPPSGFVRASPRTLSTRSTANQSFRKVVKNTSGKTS

[2] = target: T1, Rho-associated protein kinase 1; assay: Displacement of Y-27632 from ROCK-1 assessed as drop in intensity of binding signals by NMR competition experiment; parameters: concentration or dose not given beside the values
Target sequence in this assay (Q13464 2-1354 limits assumed): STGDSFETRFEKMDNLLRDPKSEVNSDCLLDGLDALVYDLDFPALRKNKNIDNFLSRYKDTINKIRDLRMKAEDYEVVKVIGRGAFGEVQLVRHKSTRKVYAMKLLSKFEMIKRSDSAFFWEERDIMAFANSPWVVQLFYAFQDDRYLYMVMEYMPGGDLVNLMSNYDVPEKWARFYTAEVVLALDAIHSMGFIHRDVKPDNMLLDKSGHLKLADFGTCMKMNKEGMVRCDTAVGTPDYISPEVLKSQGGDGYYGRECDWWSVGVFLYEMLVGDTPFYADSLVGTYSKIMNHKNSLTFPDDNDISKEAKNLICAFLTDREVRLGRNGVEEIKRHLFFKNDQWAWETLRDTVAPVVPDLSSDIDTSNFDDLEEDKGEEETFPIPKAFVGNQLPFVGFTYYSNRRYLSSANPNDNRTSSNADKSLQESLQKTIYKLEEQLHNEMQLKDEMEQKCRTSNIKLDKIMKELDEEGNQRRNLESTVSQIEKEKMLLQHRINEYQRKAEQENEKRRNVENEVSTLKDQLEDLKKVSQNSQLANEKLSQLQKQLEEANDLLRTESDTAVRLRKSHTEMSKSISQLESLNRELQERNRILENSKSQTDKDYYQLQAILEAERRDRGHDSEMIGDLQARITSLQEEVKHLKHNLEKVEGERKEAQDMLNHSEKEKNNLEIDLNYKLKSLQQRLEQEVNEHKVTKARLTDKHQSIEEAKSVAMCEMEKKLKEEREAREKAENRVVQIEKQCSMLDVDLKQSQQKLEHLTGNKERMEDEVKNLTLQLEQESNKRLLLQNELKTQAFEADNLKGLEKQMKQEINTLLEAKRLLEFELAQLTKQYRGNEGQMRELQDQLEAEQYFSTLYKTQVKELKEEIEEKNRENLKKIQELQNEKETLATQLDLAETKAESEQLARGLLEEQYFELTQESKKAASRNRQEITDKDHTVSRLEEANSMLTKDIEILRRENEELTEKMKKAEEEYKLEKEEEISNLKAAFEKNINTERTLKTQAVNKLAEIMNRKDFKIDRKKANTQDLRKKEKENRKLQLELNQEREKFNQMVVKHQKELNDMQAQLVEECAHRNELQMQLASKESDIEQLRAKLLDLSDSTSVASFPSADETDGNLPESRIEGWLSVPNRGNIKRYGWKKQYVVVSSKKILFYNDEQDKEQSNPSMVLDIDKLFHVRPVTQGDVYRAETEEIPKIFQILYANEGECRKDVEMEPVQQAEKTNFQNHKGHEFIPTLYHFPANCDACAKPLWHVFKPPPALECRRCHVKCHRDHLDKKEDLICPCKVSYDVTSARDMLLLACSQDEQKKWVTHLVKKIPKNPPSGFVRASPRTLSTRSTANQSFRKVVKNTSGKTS

[3] = Plasma clearance in Wistar rat; type: ADME, organism-based
[4] = Half life in rat liver microsome; type: ADME; conditions: liver microsomes
[5] = Oral bioavailability in Wistar rat; type: ADME, organism-based; conditions: in vivo
[6] = Half life in rat hepatocyte; type: ADME, cell-based, Liver; conditions: hepatocytes
[7] = Half life in Wistar rat; type: ADME, organism-based; conditions: in vivo
[8] = Half life in human liver microsome; type: ADME; conditions: liver microsomes
[9] = Half life in mouse liver microsome; type: ADME; conditions: liver microsomes
[10] = Volume of distribution at steady state in Wistar rat; type: ADME, organism-based; conditions: in vivo, read-out: Vdss
[11] = Permeability from apical to basolateral side of human Caco2 cells; type: ADME, cell-based; conditions: Caco-2, read-out: permeability
[12] = Permeability from basolateral to apical side of human Caco2 cells; type: ADME, cell-based; conditions: Caco-2, read-out: permeability
[13] = target: Rho-associated protein kinase 2 (Homo sapiens, UniProt O75116); assay: Inhibition of ROCK-2 by Immobilized metal ion affinity-based fluorescence polarization assay
[14] = target: Voltage-gated inwardly rectifying potassium channel KCNH2 (Homo sapiens, UniProt Q12809); assay: Displacement of [3H]dofetilide from human ERG
[15] = target: T1, Rho-associated protein kinase 1; assay: Inhibition of ROCK-1
Target sequence in this assay (Q13464 whole entry): as the sequence (Q13464 whole entry) above

[16] = Half life in C57 mouse; type: ADME, organism-based; conditions: in vivo
[17] = Oral bioavailability in C57 mouse; type: ADME, organism-based; conditions: in vivo
[18] = Volume of distribution at steady state in C57 mouse; type: ADME, organism-based; conditions: in vivo, read-out: Vdss
[19] = Plasma clearance in C57 mouse; type: ADME, organism-based
[20] = Dissociation constant, pKa of the compound; type: physicochemical

Sequence of Voltage-gated inwardly rectifying potassium channel KCNH2 (Q12809 whole entry): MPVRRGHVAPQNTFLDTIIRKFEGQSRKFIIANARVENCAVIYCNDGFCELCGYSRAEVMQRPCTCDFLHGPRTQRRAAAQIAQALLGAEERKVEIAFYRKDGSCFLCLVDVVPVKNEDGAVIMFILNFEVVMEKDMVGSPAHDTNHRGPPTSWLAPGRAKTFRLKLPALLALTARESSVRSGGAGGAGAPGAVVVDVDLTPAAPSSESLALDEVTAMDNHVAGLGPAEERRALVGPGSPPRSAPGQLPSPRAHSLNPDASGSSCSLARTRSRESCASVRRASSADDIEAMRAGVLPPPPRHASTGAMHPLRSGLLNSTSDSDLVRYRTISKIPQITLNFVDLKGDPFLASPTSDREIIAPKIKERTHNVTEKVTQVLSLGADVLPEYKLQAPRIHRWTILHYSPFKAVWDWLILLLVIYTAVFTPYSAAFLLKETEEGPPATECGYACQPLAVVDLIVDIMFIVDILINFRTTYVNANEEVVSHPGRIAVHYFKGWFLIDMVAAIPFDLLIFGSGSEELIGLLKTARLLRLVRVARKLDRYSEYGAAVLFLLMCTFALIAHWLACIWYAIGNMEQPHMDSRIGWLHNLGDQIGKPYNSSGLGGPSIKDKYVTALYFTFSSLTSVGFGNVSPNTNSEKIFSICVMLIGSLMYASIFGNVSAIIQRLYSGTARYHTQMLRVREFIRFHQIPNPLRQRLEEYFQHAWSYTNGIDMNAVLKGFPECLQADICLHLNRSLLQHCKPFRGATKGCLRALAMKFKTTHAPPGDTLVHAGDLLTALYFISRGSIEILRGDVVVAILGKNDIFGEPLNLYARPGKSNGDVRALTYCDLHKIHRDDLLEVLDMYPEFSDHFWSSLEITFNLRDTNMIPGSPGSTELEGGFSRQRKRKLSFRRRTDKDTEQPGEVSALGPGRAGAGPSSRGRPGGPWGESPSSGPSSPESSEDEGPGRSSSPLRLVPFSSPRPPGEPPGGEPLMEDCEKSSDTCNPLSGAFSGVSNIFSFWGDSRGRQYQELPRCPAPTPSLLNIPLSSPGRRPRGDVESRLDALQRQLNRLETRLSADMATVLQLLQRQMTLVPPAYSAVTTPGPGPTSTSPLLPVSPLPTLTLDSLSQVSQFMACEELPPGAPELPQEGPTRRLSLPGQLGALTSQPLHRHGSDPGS

Row | Structure (SMILES) | IC50 [1] | Activity [2] | other results
1 | Nc1nccc2cc(CNCCc3cccc(C(F)(F)F)c3)ccc12 | 1.7 µM |  | 
2 | Nc1nccc2cc(CNCc3ccc4ccccc4c3)ccc12 | 3.47 µM |  | 
3 | CS(=O)(=O)N1CCC[C@H](Oc2ccc3c(N)nccc3c2)C1 | > 100 µM |  | 
4 | Nc1nc2c(c(=O)[nH]1)CC=N2 |  | 68% | 
5 | Nc1nccc2cc(O[C@H]3CCCN(Cc4ccccc4)C3)ccc12 |  |  | clearance [3]: 295 mL/min/kg; half-life [4]: 22 min; bioavailability [5]: 7%; half-life [6]: 27 min; half-life [7]: 492 min; half-life [8]: 12 min; half-life [9]: > 120 min; Vd [10]: 8.2 L/kg; Papp A→B [11]: 2.2 ×10⁻⁶ cm/s; Papp B→A [12]: 1.5 ×10⁻⁶ cm/s
6 | c1ccn2ccnc2c1 |  | 38% | 
7 | Nc1nccc2cc(CNCCc3ccccc3)ccc12 | 1.29 µM |  | IC50 [13]: 1.29 µM; Ki [14]: 3.16 µM; Ki [15]: 0.0631 µM
8 | Nc1nccc2cc(CNCCc3ccc(Cl)c(Cl)c3)ccc12 | 0.776 µM |  | 
9 | Nc1nccc2cc(CNCc3ccccc3)ccc12 | 6.76 µM |  | 
10 | CC1(C)C(=O)Nc2ccccc21 |  | 25% | 
11 | C[C@@H](N)[C@H]1CC[C@H](C(=O)Nc2ccncc2)CC1 [Y-27632] |  |  | half-life [16]: 100 min; bioavailability [17]: 52%; Vd [18]: 3.8 L/kg; clearance [19]: 50.9 mL/min/kg
12 | c1ccc2cnccc2c1 |  | 70% | 
13 | O=S(=O)(c1cccc2c(O)nccc12)N1CCCNCC1 [HYDROXYFASUDIL] |  |  | half-life [16]: 45 min; bioavailability [17]: 57%; Ki [14]: 7.94 µM; Vd [18]: 2.4 L/kg; clearance [19]: 34 mL/min/kg
14 | COc1ccc(CCNCc2ccc3c(N)nccc3c2)cc1 | 1 µM |  | 
15 | Cc1ccc(CCNCc2ccc3c(N)nccc3c2)cc1 | 0.813 µM |  | 
16 | O=S(=O)(c1cccc2cnccc12)N1CCCNCC1 [FASUDIL] |  |  | bioavailability [17]: 3.6%; Vd [18]: 1.8 L/kg
17 | Nc1nccc2cc(CNCCc3ccncc3)ccc12 | 1.86 µM |  | 
18 | Nc1ncnc2ccccc12 |  | > 80% | 

Row | Structure (SMILES) | IC50 [1] | Activity [2] | other results
19 | CC(=O)c1ccccc1 |  | 60% | 
20 | CC1=NC(C(C)C)CO1 (configuration not stated) |  | 40% | 
21 | Nc1nccc2cc(OC3CCNCC3)ccc12 | 3.63 µM |  | 
22 | NC(=O)c1ccccc1O |  | 34% | 
23 | c1cc(N2CCOCC2)ccn1 |  | > 80% | 
24 | Cn1nc(C(C)(C)C)cc1N |  | 20% | 
25 | NCc1ccc2c(N)nccc2c1 | 7.76 µM |  | pKa [20]: 7.6
26 | Nc1ccnc2ccncc12 |  | > 80% | 
27 | O=C(Nc1nccs1)c1ccncc1 |  | > 80% | 
28 | c1ccc(-n2cccc2)nc1 |  | 30% | 
29 | Nc1nccc2cc(CNCc3cccc(Oc4ccccc4)c3)ccc12 | 0.575 µM |  | 
30 | Nc1nccc2cc(CNCCOc3ccccc3)ccc12 | 0.589 µM |  | 
31 | Nc1nccc2cc(CNCCNc3ccccc3)ccc12 | 1.48 µM |  | 
32 | c1ccc2[nH]cnc2c1 |  | 64% | 
33 | CN(CCc1ccccc1)Cc1ccc2c(N)nccc2c1 | 0.427 µM |  | 
34 | Nc1nccc2cc(OC3CCN(Cc4ccccc4)CC3)ccc12 | 4.27 µM |  | 
35 | c1ccc2[nH]ncc2c1 |  | > 80% | 
36 | c1cc(-c2cnco2)ccn1 |  | > 80% | 
